Active and inactive are the calls of the source. The rule behind the calls is not given here.

Experiment [1] can be described thus: Induction of RARalpha recruitment to [gamma-32P]-5'-end labeled pUC18 DNA fragment at 10 mM after 30 mins by EMSA. A general note: A gel shift assay detects complexes by their altered migration in electrophoresis.
In experiment [2] the test system is Nucleic Acid. The experiment in a line: Binding affinity to [gamma-32P]-5'-end labeled pUC18 DNA fragment assessed as alkylation at N7 positions of guanine base by strand-breakage assay. Format: nucleic-acid assay.
Experiment [3] deals with Nucleic Acid. Briefly: Binding affinity to [gamma-32P]-5'-end labeled pUC18 DNA fragment by autoradiography. Format: nucleic-acid assay.
The target of experiment [4] is T1, Retinoic acid receptor alpha (Homo sapiens) (UniProt P10276).
T1 sequence (whole entry): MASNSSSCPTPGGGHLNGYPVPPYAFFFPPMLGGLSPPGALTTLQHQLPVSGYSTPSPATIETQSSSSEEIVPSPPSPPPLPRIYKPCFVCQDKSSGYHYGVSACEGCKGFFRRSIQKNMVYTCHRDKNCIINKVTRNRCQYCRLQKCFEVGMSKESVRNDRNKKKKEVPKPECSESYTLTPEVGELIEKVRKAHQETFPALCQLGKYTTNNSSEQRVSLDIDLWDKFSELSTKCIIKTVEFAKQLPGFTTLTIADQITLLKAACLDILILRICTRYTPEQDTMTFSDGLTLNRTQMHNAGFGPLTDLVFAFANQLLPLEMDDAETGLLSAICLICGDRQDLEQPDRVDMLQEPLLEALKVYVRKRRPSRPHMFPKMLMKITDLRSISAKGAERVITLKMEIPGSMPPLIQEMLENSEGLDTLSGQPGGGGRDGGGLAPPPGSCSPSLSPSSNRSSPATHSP
The experiment in a line: Inhibition of transactivation of RARalpha overexpressed in COS cells after 24 hrs by luciferase reporter gene assay in presence of ATRA. Format: cell-based. (In general: A reporter such as luciferase makes a cellular process visible.)

Experiment [5] concerns the target T1, Retinoic acid receptor alpha (Homo sapiens). The experiment in a line: Displacement of [3H]ATRA from RARalpha overexpressed in COS cell extract at 10 nM after 12 hrs by liquid scintillation counting. Format: cell-free. Background: Displacement assays read how much labelled ligand stays bound in the presence of the test substance.
The target is the same in experiment [6]. The experiment in a line: Displacement of [3H]ATRA from RARalpha overexpressed in COS cell extract after 12 hrs by liquid scintillation counting. Format: cell-free.
Experiment [7] in a line: Induction of RARalpha recruitment to [gamma-32P]-5'-end labeled pUC18 DNA fragment at 1 mM after 30 mins by EMSA.

With `CC1=C(/C=C/C(C)=C/C=C/C(C)=C/C(=O)NCCCc2ccc(N(CCCl)CCCl)cc2)C(C)(C)CCC1`, the result (in experiment [1]; with Nucleic Acid [2]; in the experiment with Nucleic Acid [3]; in experiment [5]) was Active. For the same compound, in experiment [4], the inhibition result is “Dose-dependent effect”. For the same compound, in experiment [6], the Activity entry was “Dose-dependent effect”.

As for `O=C(O)CCCc1ccc(N(CCCl)CCCl)cc1`, the outcome in experiment [7] was inactive. Further, the outcome in the experiment with Nucleic Acid [2] was Active.

(Values after ChEMBL document CHEMBL2150872, “A transcription factor hijacking to regulate RARα by using a chimeric molecule of retinoic acid and a DNA alkylator” (Bioorg Med Chem Lett, 2011).)
